“Also recorded” adds a separate entry of the source. Read-outs that look alike come from different tables or passages of the source. Where no end group is shown, it is not given here.
What was measured:
[1] = biological target: Aplysia leucokinin-like peptide receptor (Aplysia californica)
[2] = biological target: T1, ALKR (Aplysia leucokinin-like peptide receptor) (Aplysia californica, UniProt A0A977Q7Q2); experiment: IP1 accumulation assay, CHO-K1 cells transfected with ALKR; type: cell-based; conditions: for EC50: CHO-K1 transiently transfected with ALKR, no promiscuous Gαq, ALK1 n = 13, ALK2 n = 4, others n = 3; for Activation of ALKR (in words): IP1 accumulation in CHO-K1 transfected with ALKR; for Active (√ active / × not active): ALKR, tick or cross in column Active (EC50)
T1 sequence (A0A977Q7Q2 1-429): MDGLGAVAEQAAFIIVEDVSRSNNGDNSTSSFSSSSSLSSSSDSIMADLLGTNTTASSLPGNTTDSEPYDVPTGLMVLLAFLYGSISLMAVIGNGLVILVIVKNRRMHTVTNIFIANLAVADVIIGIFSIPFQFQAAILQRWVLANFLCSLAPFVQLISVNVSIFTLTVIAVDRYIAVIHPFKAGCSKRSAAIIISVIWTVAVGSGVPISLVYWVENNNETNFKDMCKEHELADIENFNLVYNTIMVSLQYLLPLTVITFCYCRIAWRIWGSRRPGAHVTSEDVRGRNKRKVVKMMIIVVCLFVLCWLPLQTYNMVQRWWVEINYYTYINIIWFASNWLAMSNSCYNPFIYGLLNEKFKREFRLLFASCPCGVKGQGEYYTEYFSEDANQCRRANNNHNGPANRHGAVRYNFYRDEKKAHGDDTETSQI
From the text: To examine whether the native ALKs could activate the putative ALKR, we expressed the ALKR in Chinese hamster ovary K1 (CHO-K1) cells and examined ALK-mediated changes in the concentration of inositol monophosphate (IP1), a degradation product of the second messenger (inositol trisphosphate) in the Gq signaling pathway upon ligand-induced activation ([88]) (Figs. 4 and S5). […] All endogenous ALK peptides could activate ALKR in a dose-dependent manner (Fig. 4, A–C). […] The lowest EC50 values were for ALK8 (EC50 = 10 nM) and ALK9 (EC50 = 10 nM). The EC50 values for ALK1, ALK2, ALK3, ALK4, ALK5, ALK10, ALK13 were slightly higher than that of ALK9, but there was no statistically significant difference between them (Table S5).
(§1) IP1 accumulation assay measures concentration of IP1 ([88]), that is hydrolyzed from the second messenger, inositol trisphosphate, generated by Gαq pathway when GPCR expressed in CHO-K1 cells is activated by an appropriate ligand. We note two reasons that we selected mammalian CHO-K1 cells for assays for ligand-receptor (GPCR) activity: (1) there are no established molluscan cell lines available; (2) CHO-K1 cells have been extensively utilized not only for vertebrate GPCRs (e.g., ([97])) but also for invertebrate/protostome GPCRs, including other molluscs ([9], [11], [73]), annelids ([8]), jellyfish ([98]), Caenorrhabditis elegans ([99]), and arthropods ([76], [78], [79], [80]). Given that LKRs are only present in protostomes ([6], [7], [66], [67]), an additional advantage of using mammalian cells to assay ligand-receptor activity is that the effects of a possible native LKR in protostome cell lines could be excluded.
(§2) In order to express the Aplysia putative receptor transiently in CHO-K1, the cDNA was cloned into the mammalian expression vector pcDNA3.1(+). […] Transfection experiments were performed when the cells were grown to 70 to 90% confluence. For the ALKR, in each dish (60-mm diameter), 4 μg of the putative receptor plasmids [in pcDNA3.1(+)] were mixed with 400 μl of Opti-MEM (Gibco, 11058021), followed by the addition of 15 μl of Turbofect (Thermo Fisher Scientific, R0531). […] Thus, 3 μg of the putative receptor plasmids [in pcDNA3.1(+)] and 3 μg of promiscuous Gαq protein ([89]) [in pcDNA3.1(+)] were cotransfected in the above procedure for the Anopheles LKR ([8], [10]). The CHO-K1 cells with the reagents added above were mixed gently and incubated at room temperature for 15 min. The DNA/Turbofect mixture dropwise was then added to the dish, and the cells were incubated at 37 °C in 5% CO2 overnight. The next day, the cells were trypsinized and reseeded in opaque white 96-well half-area (Corning, 3688) or 384-well tissue culture–treated plates (Corning, 3570) at a density of 20,000 cells/well in F-12K and 10% FBS and incubated at 37 °C in 5% CO2 overnight. On the third day, the activation of the receptors was detected by monitoring IP1 accumulation using IP1 detection kit (Cisbio, 62IPAPEB) with a Tecan Spark plate reader. Except for using 0.5 × reagents for the anti-IP1-cryptate and IP1-d2 reagents, all other procedures were performed in accordance with the IP1 detection kit manufacturer’s instructions.

Anopheles LKR = biological target: T2, Anopheles LKR (Anopheles stephensi, UniProt Q694V6); experiment: IP1 accumulation assay, CHO-K1 cells cotransfected with Anopheles LKR and promiscuous Gαq; type: cell-based; conditions: log scale, mean ± SEM, n = 3
T2 sequence (Q694V6 1-573): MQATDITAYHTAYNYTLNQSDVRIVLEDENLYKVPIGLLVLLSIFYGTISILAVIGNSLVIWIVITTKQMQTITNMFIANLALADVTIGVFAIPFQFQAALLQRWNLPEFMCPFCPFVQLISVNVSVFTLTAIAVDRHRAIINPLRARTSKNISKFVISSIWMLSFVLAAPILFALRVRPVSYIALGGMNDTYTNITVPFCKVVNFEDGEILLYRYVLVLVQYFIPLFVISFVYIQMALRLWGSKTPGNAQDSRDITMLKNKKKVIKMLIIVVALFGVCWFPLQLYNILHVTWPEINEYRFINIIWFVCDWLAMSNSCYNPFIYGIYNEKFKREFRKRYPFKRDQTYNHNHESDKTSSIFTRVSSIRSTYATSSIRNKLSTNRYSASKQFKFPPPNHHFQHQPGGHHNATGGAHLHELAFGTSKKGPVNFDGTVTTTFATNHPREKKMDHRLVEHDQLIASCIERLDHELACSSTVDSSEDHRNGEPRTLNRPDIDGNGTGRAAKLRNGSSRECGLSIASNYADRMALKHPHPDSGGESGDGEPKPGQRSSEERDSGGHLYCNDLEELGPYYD
From the text: Considering the similarity of leucokinin-like peptides in different species (Fig. 1), we sought to evaluate cross-activity between leucokinin peptides and their receptors in different species. We selected A. stephensi because it is a pest, and this would also provide an opportunity to determine if Aplysia LKs could be potentially used as insecticides ([67]). […] Thus, we cotransfected promiscuous Gαq with the Anopheles receptor, whereas there was no cotransfection of promiscuous Gαq for ALKR.
as §1
as §2, with “Except for using 0.5 × reagents for the anti-IP1-cryptate and IP1-d2 reagents, all other procedures were performed in accordance with the IP1 detection kit manufacturer’s instructions.” left out

[3] = biological target: ALKR Y213A (Aplysia californica)
[4] = biological target: ALKR Q317A (Aplysia californica)
[5] = biological target: ALKR Q133A & Y213A & Q317A (Aplysia californica)
[6] = biological target: ALKR Q250A & Q311A (Aplysia californica)
[7] = biological target: ALKR I329Q (Aplysia californica)
[8] = biological target: ALKR L157Q (Aplysia californica)
[9] = biological target: ALKR Q133A (Aplysia californica)
[10] = biological target: ALKR L157Q & I329Q (Aplysia californica)
[11] = biological target: ALKR N314A (Aplysia californica)
[12] = biological target: Aplysia leucokinin-like peptide receptor (Aplysia californica); remark: listed apart in the source
ALKR Q317N = ALKR Q317N (Aplysia californica, UniProt A0A977Q7Q2, Q317N); experiment: IP1 accumulation assay, ALKR mutant Q317N in CHO-K1; type: cell-based
Chain of ALKR Q317N (A0A977Q7Q2 entry or part of it Q317N): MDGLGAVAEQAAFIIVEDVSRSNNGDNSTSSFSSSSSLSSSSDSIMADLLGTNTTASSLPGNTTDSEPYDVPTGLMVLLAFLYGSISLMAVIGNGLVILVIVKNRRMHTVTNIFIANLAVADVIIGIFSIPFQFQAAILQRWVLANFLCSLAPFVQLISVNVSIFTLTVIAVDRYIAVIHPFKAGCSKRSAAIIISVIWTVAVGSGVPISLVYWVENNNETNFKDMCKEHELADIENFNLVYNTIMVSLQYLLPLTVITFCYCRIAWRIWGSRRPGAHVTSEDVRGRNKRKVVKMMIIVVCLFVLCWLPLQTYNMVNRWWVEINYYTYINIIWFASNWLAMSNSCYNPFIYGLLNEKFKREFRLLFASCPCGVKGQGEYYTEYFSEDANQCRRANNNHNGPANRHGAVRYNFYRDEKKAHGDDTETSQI
From the text: as §1
(§3) In order to express the Aplysia putative receptor transiently in CHO-K1, the cDNA was cloned into the mammalian expression vector pcDNA3.1(+). […] Transfection experiments were performed when the cells were grown to 70 to 90% confluence. […] On the third day, the activation of the receptors was detected by monitoring IP1 accumulation using IP1 detection kit (Cisbio, 62IPAPEB) with a Tecan Spark plate reader. […]

ALKR Q133A = ALKR Q133A (Aplysia californica, UniProt A0A977Q7Q2, Q133A); experiment: IP1 accumulation assay, ALKR mutant Q133A in CHO-K1; type: cell-based
Chain of ALKR Q133A (A0A977Q7Q2 entry or part of it Q133A): as the sequence (A0A977Q7Q2 entry or part of it Q317N) above, with Q133A, N317Q counted along it
From the text: as §1, §3

ALKR N314A = ALKR N314A (Aplysia californica, UniProt A0A977Q7Q2, N314A); experiment: IP1 accumulation assay, ALKR mutant N314A in CHO-K1; type: cell-based
Chain of ALKR N314A (A0A977Q7Q2 entry or part of it N314A): as the sequence (A0A977Q7Q2 entry or part of it Q317N) above, with N314A, N317Q counted along it
From the text: as §1, §3

ALKR I329Q = ALKR I329Q (Aplysia californica, UniProt A0A977Q7Q2, I329Q); experiment: IP1 accumulation assay, ALKR mutant I329Q in CHO-K1; type: cell-based
Chain of ALKR I329Q (A0A977Q7Q2 entry or part of it I329Q): as the sequence (A0A977Q7Q2 entry or part of it Q317N) above, with N317Q, I329Q counted along it
From the text: as §1, §3

ALKR Q317A = ALKR Q317A (Aplysia californica, UniProt A0A977Q7Q2, Q317A); experiment: IP1 accumulation assay, ALKR mutant Q317A in CHO-K1; type: cell-based
Chain of ALKR Q317A (A0A977Q7Q2 entry or part of it Q317A): as the sequence (A0A977Q7Q2 entry or part of it Q317N) above, with N317A counted along it
From the text: as §1, §3

ALKR Y213A = ALKR Y213A (Aplysia californica, UniProt A0A977Q7Q2, Y213A); experiment: IP1 accumulation assay, ALKR mutant Y213A in CHO-K1; type: cell-based
Chain of ALKR Y213A (A0A977Q7Q2 entry or part of it Y213A): as the sequence (A0A977Q7Q2 entry or part of it Q317N) above, with Y213A, N317Q counted along it
From the text: as §1, §3

ALKR L157Q = ALKR L157Q (Aplysia californica, UniProt A0A977Q7Q2, L157Q); experiment: IP1 accumulation assay, ALKR mutant L157Q in CHO-K1; type: cell-based; conditions: mutant without FLAG tag, n = 3
Chain of ALKR L157Q (A0A977Q7Q2 entry or part of it L157Q): as the sequence (A0A977Q7Q2 entry or part of it Q317N) above, with L157Q, N317Q counted along it
From the text: as §1, §3

[13] = log scale, IP1 detection kit (Cisbio), mean ± SEM, inactive: greater than highest concentration tested, read-out: log [EC50] on ALKR (converted)
[14] = IP1 accumulation, average, rounded to two significant figures, read-out: EC50 on ALKR

Aplysia leucokinin-like peptide 8
EC50 of IP1 accumulation in CHO-K1 cells transfected with ALKR [1]: 10 nM

PAFSAWS-NH2 [ALK3]
EC50 [2, 13]: 11.7 nM

DTPRYVSKQKFHSWG-NH2 [Anopheles LK1, reference compound]
EC50 (Anopheles LKR): 3.63 nM
EC50 [2, 13]: 427 nM

LAAFHAWS-NH2 [ALK12]
EC50 [2, 13]: 295 nM

AGFAPWA-NH2 [ALK4]
EC50 [2, 13]: 19.5 nM

PAAFHAWS-NH2 [ALK11]
EC50 [2, 13]: 61.7 nM

Aplysia leucokinin-like peptide 9
EC50 of IP1 accumulation in CHO-K1 cells transfected with ALKR [1]: 10 nM

PAFHAWG-NH2 [ALK10]
EC50 [2, 13]: 21.4 nM

AAFHSWS-NH2 [ALK1_A1]
EC50 [2, 13]: 141 nM

PAFSAWN-NH2 [ALK5]
EC50 [2, 13]: 10.5 nM

PAFQAWS-NH2 [ALK13]
EC50 [2, 13]: 15.1 nM

PAFHSWA-NH2 [ALK1_A7]
EC50 [2, 13]: 28.2 nM

SEKQPAFHAWS-NH2 [ALK6]
EC50 [2, 13]: 31.6 nM

PAAHSWS-NH2 [ALK1_A3]
EC50 [2, 14]: > 10000 nM
Activation of ALKR (in words) [2]: not active
Active (√ active / × not active) ([2]; IP1 accumulation): ×
EC50 [2, 13]: > 10000 nM

Aplysia leucokinin-like peptide 1
EC50 of IP1 accumulation in CHO-K1 cells expressing the ALKR mutant, activated by ALK1 [3]: 370 nM
EC50 of IP1 accumulation in CHO-K1 cells expressing the ALKR mutant, activated by ALK1 [4]: 56 nM
EC50 of IP1 accumulation in CHO-K1 cells expressing the ALKR mutant, activated by ALK1 [5]: 13000 nM
EC50 of IP1 accumulation in CHO-K1 cells expressing the ALKR mutant, activated by ALK1 [6]: 19000 nM
EC50 of IP1 accumulation in CHO-K1 cells expressing the ALKR mutant, activated by ALK1 [7]: 6800 nM
EC50 of IP1 accumulation in CHO-K1 cells expressing the ALKR mutant, activated by ALK1 [8]: 77 nM
EC50 of IP1 accumulation in CHO-K1 cells expressing the ALKR mutant, activated by ALK1 [9]: 78 nM
EC50 of IP1 accumulation in CHO-K1 cells expressing the ALKR mutant, activated by ALK1 [10]: 35000 nM
EC50 of IP1 accumulation in CHO-K1 cells expressing the ALKR mutant, activated by ALK1 [11]: 120 nM

Aplysia leucokinin-like peptide 12
EC50 of IP1 accumulation in CHO-K1 cells transfected with ALKR [1]: 330 nM

Aplysia leucokinin-like peptide 6
EC50 of IP1 accumulation in CHO-K1 cells transfected with ALKR [1]: 32 nM

PAFHSWS-OH [ALK1_nG]
Active (√ active / × not active) ([2]; IP1 accumulation): ×

ALK1 with H4 replaced with A (peptide)
EC50 of IP1 accumulation in CHO-K1 cells transfected with ALKR [12]: 51 nM

PAFHAWS-NH2 [ALK2]
EC50 [2, 13]: 21.4 nM

PAFNAWG-NH2 [ALK8]
EC50 (Anopheles LKR): 40.7 nM
EC50 [2, 13]: 10.2 nM

PRFHAWS-NH2 [ALK7]
EC50 [2, 13]: 91.2 nM

Aplysia leucokinin-like peptide 7
EC50 of IP1 accumulation in CHO-K1 cells transfected with ALKR [1]: 92 nM

PAFHSWS-NH2 [ALK1]
EC50 (Anopheles LKR): 282 nM
EC50 (ALKR Q317N): 25.1 nM
Activation of ALKR (in words) [2]: active
EC50 [2, 13]: 13.8 nM
EC50 (ALKR Q133A): 77.6 nM
EC50 (ALKR N314A): 110 nM
EC50 (ALKR I329Q): 6760 nM
EC50 (ALKR Q317A): 56.2 nM
EC50 (ALKR Y213A): 372 nM
EC50 (ALKR L157Q; EC50 on ALKR L157Q): 77 nM
EC50 (ALKR L157Q; log [EC50] on ALKR L157Q, log scale, mean ± SEM): 70.8 nM

PAFASWS-NH2 [ALK1_A4]
EC50 [2, 13]: 51.3 nM

PAFHSWS-OH [ALK1-OH]
EC50 [2, 14]: > 10000 nM
Activation of ALKR (in words) [2]: not active; also recorded: not able to activate
EC50 [2, 13]: > 10000 nM

PAFSPWS-NH2 [ALK9]
EC50 (Anopheles LKR): 724 nM
EC50 [2, 13]: 9.77 nM

Aplysia leucokinin-like peptide 11
EC50 of IP1 accumulation in CHO-K1 cells transfected with ALKR [1]: 62 nM

PAFHSAS-NH2 [ALK1_A6]
EC50 [2, 14]: > 10000 nM
Activation of ALKR (in words) [2]: not active
Active (√ active / × not active) ([2]; IP1 accumulation): ×
EC50 [2, 13]: > 10000 nM

Source: PMC9562341, “AI protein structure prediction-based modeling and mutagenesis of a protostome receptor and peptide ligands reveal key residues for their interaction” (The Journal of Biological Chemistry, 2022)
